This note sets out measurements from PMC6105827, “Antitrypanosomal 8-Hydroxy-Naphthyridines Are Chelators of Divalent Transition Metals” (Antimicrobial Agents and Chemotherapy, 2018).

The nature of the series: Spectrophotometric UV-Vis titration and Job's plot of binding to divalent cations. It is filed as physicochemical. How it is done: UV-visible (UV-Vis) titrations were carried out essentially as described previously ([65], [66]). Aliquots of metal divalent cations (concentrated stocks were made initially in water and then diluted in methanol) were added to a fixed concentration of 50 μM 8-HNT compound in methanol. After each aliquot addition, the incubation mixture was left to stabilize for 5 min at 25°C prior to scanning. Wavelength scanning was carried out at between 260 and 510 nm by using a UV-2401 PC UV-Vis spectrophotometer (Shimadzu). For Job's plot analyses ([66]), the combined concentration of 8-HNT and cation was fixed at 200 μM, and only the molar ratio of cation versus 8-HNT compound varied. Changes of the absorption at 475, 390, and 375 nm were indicative of cation complex formation with compounds 1 to 3, respectively. Specific absorbance at these wavelengths was determined and plotted against the molar ratio of compound to cation to determine complex stoichiometry ([66]).

SMILES strings stand for the structures.

Regarding `Cc1nnc(-c2nc(NCc3ccc(Cl)cc3)c3cccnc3c2O)[nH]1` [Compound 1], under “50 μM compound, absorbance at 475 nm”, the “Zn^2+ concentration at which binding is saturable” value was 25 µM. Also, the “Job's plot intercept, molar fraction (compound to Zn^2+)” value (combined concentration 200 μM in methanol, absorbance 475/390/375 nm) was 0.34.
